From patent US20130028838A1, “F18-TYROSINE DERIVATIVES FOR IMAGING BONE METASTASES” (PIRAMAL IMAGING SA, priority 2010, published 2013)
Read-outs that look alike come from different tables or passages of the source.

Key:
[1] = test system: inflammatory muscle tissue; conditions: cited from earlier work
786-O bone metastases = assay: PET/CT imaging in 786-O/luc bone metastasis mouse model; conditions: for accumulation in bone metastases / osteolytic lesions: [F-18]-fluoride day 51, [F-18]-D-FMT day 65
Method: 786-O/luc cells and the MDA-MB231SA/luc cells were harvested from subconfluent cell culture flasks and resuspended in PBS (Biochrom AG) to a final concentration of 5×10^5 cells/100 μl. For intracardiac inoculations, 5-week-old female athymic nude mice (Harlan-Winkelmann GmbH, Borchen, Germany) were anesthetized with an intraperitoneal injection of 5% Rompun (Bayer HealthCare AG, Leverkusen, Germany)/10% Ketavet (Pfizer, Karlsruhe, Germany) in 0.9% NaCl at a dose of 0.1 ml/10 g body weight. Using an insulin syringe (BD Micro-Fine+Demi U-100, Becton Dickinson GmbH, Heidelberg, Germany), 5×10^5 786-O/luc cells in 100 μl PBS were inoculated into the left cardiac ventricle (i.c.) of anesthetized mice. Experiments were approved by the governmental review committee on animal care.
10 to 12 MBq [F-18]-fluoride or [F-18]-D-FMT were injected i.v. into the tail vein. 60 min after injection anesthesia was induced by isoflurane/O2 and twenty-minute micro-PET/computed tomography (CT) scans were obtained using an Inveon micro PET/CT scanner (Siemens).
51 days after the inoculation of the 786-O/luc cells into the mice, PET/CT imaging was performed with [F-18]-fluoride (FIG. 1 right side). […] The same mouse was imaged 2 weeks later (day 65) with [F-18]-D-FMT (FIG. 1 left side).

786-O/luc cells = assay: in vitro uptake of [F-18]-D-FMT into 786-O/luc cells; format: cell-based, human; conditions: after 30 min
[2] = test system: MDA-MB231SA bone metastases; assay: PET/CT imaging in MDA-MB231SA/luc bone metastasis mouse model; format: in vivo; conditions: PET/CT 25 days after inoculation
Source text: To conclude, [F-18]-D-FMT is useful for the detection of bone metastases.

[3] = in vivo; cited from earlier work

Row | Molecule | uptake in inflammatory muscle tissue ([1]; in vivo) | uptake into regenerating and remineralizing bone / detection of osteoblastic activity (786-O bone metastases) | uptake into the healthy bone (786-O bone metastases; 60 min after i.v. injection) | accumulation in bone metastases / osteolytic lesions (786-O bone metastases) | uptake into the 786-O/luc cells (786-O/luc cells) [% applied dose/10^6 cells] | uptake into the bone metastases [2] | uptake in inflammatory muscle tissue ([1]; Turpentine-induced inflammation) | blood-borne tracer carried in red cells [3]
1 | 18F-fluorodeoxyglucose [FDG, reference compound] | taken up |  |  |  |  |  |  | 
2 | N[C@H](Cc1ccc(OC[18F])cc1)C(=O)O [[F-18]-D-FMT, (R)-2-amino-3-(4[F-18]fluoromethoxy-phenyl)-propionic acid] |  | not detected | no uptake | accumulated in all bone metastases imaged by [F-18]-fluoride | 12.8 | showed uptake into the bone metastases | no uptake | 
3 | [18FH] [[F-18]-fluoride, reference compound] |  | unspecific uptake |  | high accumulation in multiple osteolytic lesions |  |  |  | approximately 30%
